Reference: patent US20220168296A1, “METHODS OF TREATING CANCER WITH FARNESYLTRANSFERASE INHIBITORS” (Kura Oncology, Inc., priority 2019, published 2022)

Experiments:
Format in all cases: in vivo, human
[1] = test system: relapsed or refractory Diffuse Large B Cell Lymphoma (DLBCL); assay: Phase II clinical study with tipifarnib in relapsed or refractory non-Hodgkin's lymphoma patients: DLBCL subjects; set-up: key to Best Response: a partial response (PR); Stable disease (SD) can be defined as any response not meeting CR, PR, HI, or PD criteria; Progressive disease (PD) can be defined as either >50% increase in lymph node or circulating blast % from baseline, or new appearance of circulating blasts (on at least 2 consecutive occasions)
Procedure: (§1) A Phase II clinical study with tipifarnib was performed in relapsed or refractory non-Hodgkin's lymphoma patients (N=93), wherein the types of non-Hodgkin's lymphoma included Diffuse Large B Cell Lymphoma (DLBCL) and Mycosis Fungoides (MF). Eligible patients received 300 mg tipifarnib as a single agent orally, twice a day (bid) on days 1-21 of 28 day cycles. Courses were repeated every 28 days in the absence of disease progression or unacceptable toxicity. Primary objective of assessing objective tumor response, in terms of Objective Response Rate (ORR), was determined using the International Workshop Criteria (IWC).
Exclusion Criteria for this clinical study include: (a) pregnant women; (b) breastfeeding women; (c) men or women of childbearing potential or their sexual partners who are unwilling to employ adequate contraception (condoms, diaphragm, birth control pills, injections, intrauterine device [IUD], surgical sterilization, subcutaneous implants, or abstinence, etc.); (d) life-threatening illness (unrelated to tumor); (e) ongoing radiation therapy or radiation therapy ≤3 weeks prior to study registration unless the acute side effects associated with such therapy are resolved; (f) therapy with myelosuppressive chemotherapy, cytotoxic chemotherapy, or biologic therapy ≤3 weeks (6 weeks for nitrosourea or mitomycin C) or corticosteroids ≤2 weeks, prior to starting R11577; patients may be on corticosteroids or tapering off them up until the day they start R11577 as long as it is clear that they are not having a tumor response to the steroids or that the steroids would confuse the interpretation of response to R11577; patients may be receiving stable (not increased within the last month) chronic doses of corticosteroids with a maximum dose of 20 mg of prednisone per day if they are being given for disorders other than lymphoma such as rheumatoid arthritis, polymyalgia rheumatica, adrenal insufficiency, or intractable symptoms of lymphoma; (g) peripheral neuropathy ≥grade 3; (h) serious non-malignant disease such as active infection or other condition which in the opinion of the investigator would compromise other protocol objectives; (i) presence of central nervous system (CNS) lymphoma; (j) other active malignancies; (k) once a patient begins FTI (tipifarnib) treatment, the addition of other cancer treatment will confound the assessment of efficacy and therefore is not allowed; this restriction precludes the addition of cytotoxic, immunologic agents, radiotherapy, or an increase in corticosteroid dose while the patient is in the treatment phase of this protocol; (l) known to be human immunodeficiency virus (HIV) positive; HIV testing is not required but should be done if clinically indicated; HIV patients are excluded because of concerns regarding excess risk of complications of immunosuppressive therapy regimens; and (m) known allergy to imidazole drugs such as clotrimazole, ketoconazole, miconazole, econazole, fenticonazole, sulconazole, tioconazole, or terconazole.
Pre-treatment tumor samples and best response data were obtained from 20 patients (N=20): 6 Diffuse Large B Cell Lymphoma (DLBCL), 6 Hodgkin Lymphoma (HL), 4 Follicular Lymphoma (FL), 1 Marginal Zone B Cell Lymphoma, 1 PTCL NOS, and 2 Mycosis Fungoides (MF). Within these 20 patients, the following objective responses were identified: 3 PRs and 1 SD were reported in DLBCL, 1PR in HL, and 2PRs in MF.
CXCL12, CXCR4, CXCR7, and PRICLKE2, mRNA expression data were generated by RNASeq and expressed as RNA Seq RSEM.

Mycosis Fungoides (MF) = assay: Phase II clinical study with tipifarnib in relapsed or refractory non-Hodgkin's lymphoma patients: MF subjects
Procedure: as §1, with “(IWC). […] CXCL12, CXCR4, CXCR7, and […]2, mRNA expression data were generated by RNASeq and expressed as RNA Seq RSEM.” for “(IWC).”

Hodgkin Lymphoma (HL) = assay: Phase II clinical study with tipifarnib in relapsed or refractory lymphoma patients: HL subjects; details: among 6 HL patients with pre-treatment tumor samples; 300 mg orally bid days 1-21 of 28 day cycles
Procedure: as §1, with “(IWC). […]” for “(IWC).”

[2] = among 6 DLBCL patients with pre-treatment tumor samples, 300 mg orally bid days 1-21 of 28 day cycles
[3] = high PRICKLE2 and CXCL12/CXCR4 ratio greater than about 1/10 (about 0.10), out of 6 subjects (FIG. 2B)
[4] = low PRICKLE2 and lower CXCL12/CXCR4 ratio, cut-off about 1/10 (about 0.10), out of 6 subjects (FIG. 2B)
[5] = low PRICKLE2 and lower CXCL12/CXCR4 ratio, cut-off about 3/20 (about 0.15), out of 6 subjects (FIG. 2B)
[6] = low pre-treatment CXCL12 expression levels, out of 6 subjects (FIG. 1A)
[7] = low pre-treatment PRICKLE2 expression levels, out of 6 subjects (FIG. 2A)

## Cn1cncc1[C@@](N)(c1ccc(Cl)cc1)c1ccc2c(c1)c(-c1cccc(Cl)c1)cc(=O)n2C [tipifarnib]
[1]; DLBCL subject with pre-treatment tumor CXCL12/CXCR7 ratio 1.4, 300 mg orally bid days 1-21 of 28 day cycles
  Best Response: PD
[1]; DLBCL subject with pre-treatment tumor CXCL12/CXCR7 ratio 3.5, 300 mg orally bid days 1-21 of 28 day cycles
  Best Response: PD
[1]; DLBCL subject with pre-treatment tumor CXCL12/CXCR7 ratio 3.7, 300 mg orally bid days 1-21 of 28 day cycles
  Best Response: SD
[1]; DLBCL subject with pre-treatment tumor CXCL12/CXCR7 ratio 6.6, 300 mg orally bid days 1-21 of 28 day cycles
  Best Response: PR
[1]; DLBCL subject with pre-treatment tumor CXCL12/CXCR7 ratio 30.8, 300 mg orally bid days 1-21 of 28 day cycles
  Best Response: PR
[1]; DLBCL subject with pre-treatment tumor CXCL12/CXCR7 ratio 66.8, 300 mg orally bid days 1-21 of 28 day cycles
  Best Response: PR
[1]; Patient 35, DLBCL, pre-treatment tumor CXCL12/CXCR4 ratio 1.280, 300 mg orally bid days 1-21 of 28 day cycles
  Best Response: PR
[1]; Patient 38, DLBCL, pre-treatment tumor CXCL12/CXCR4 ratio 0.505, 300 mg orally bid days 1-21 of 28 day cycles
  Best Response: PR
[1]; Patient 39, DLBCL, pre-treatment tumor CXCL12/CXCR4 ratio 0.179, 300 mg orally bid days 1-21 of 28 day cycles
  Best Response: PR
[1]; Patient 42, DLBCL, pre-treatment tumor CXCL12/CXCR4 ratio 0.122, 300 mg orally bid days 1-21 of 28 day cycles
  Best Response: SD
[1]; Patient 43, DLBCL, pre-treatment tumor CXCL12/CXCR4 ratio 0.050, 300 mg orally bid days 1-21 of 28 day cycles
  Best Response: PD
[1]; Patient 44, DLBCL, pre-treatment tumor CXCL12/CXCR4 ratio 0.012, 300 mg orally bid days 1-21 of 28 day cycles
  Best Response: PD
[1]; [2]
  Number of PRs (objective responses): 3
  Number of SD (objective responses): 1
[1]; [3]
  Number of PR responses: 3
  Number of SD responses: 1
[1]; high PRICKLE2 and CXCL12/CXCR4 ratio greater than about 3/20 (about 0.15), out of 6 subjects (FIG. 2B)
  Number of PR responses: 3
[1]; high pre-treatment CXCL12 expression levels, out of 6 subjects (FIG. 1A)
  Number of PR responses: 3
[1]; high pre-treatment PRICKLE2 expression levels, out of 6 subjects (FIG. 2A)
  Number of PR responses: 3
[1]; [4]
  Number of PD responses: 2
  Number of PR responses: 0
  Number of SD responses: 0
[1]; [5]
  Number of PD responses: 2
  Number of PR responses: 0
  Number of SD responses: 1
[1]; [6]
  Number of PD responses: 2
  Number of PR responses: 0
  Number of SD responses: 1
[1]; [7]
  Number of PD responses: 2
  Number of PR responses: 0
  Number of SD responses: 1
Mycosis Fungoides (MF); MF patients having high pre-treatment CXCL12 expression levels, out of 2 subjects
  Number of PR responses: 2
Mycosis Fungoides (MF); MF, low pre-treatment CXCL12 expression levels, out of 2 subjects
  Number of PR responses: 0
Mycosis Fungoides (MF); among 2 MF patients with pre-treatment tumor samples, 300 mg orally bid days 1-21 of 28 day cycles
  Number of PRs (objective responses): 2
Mycosis Fungoides (MF); two MF subjects with CXCL12/CXCR4 expression ratio of 0.6 and 2.0, out of 2 subjects
  Number of PRs: 2
Hodgkin Lymphoma (HL)
  Number of PR (objective responses): 1
